Data on 12 compounds can be found in US20130150354A1, “NEW SELECTIVE CCR2 ANTAGONISTS” (BOEHRINGER INGELHEIM INTERNATIONAL GMBH, priority 2011, published 2013).

Each structure is given as a SMILES string.

For the first assay, the target named is T1, CCR2 (Homo sapiens, UniProt P41597).
T1 construct: Membranes were prepared from THP-1 cells; endogenous in cells; host or cells: THP-1 (human acute monocytic leukaemia cells), membrane preparation
T1 sequence (P41597 1-360 isoform P41597-2): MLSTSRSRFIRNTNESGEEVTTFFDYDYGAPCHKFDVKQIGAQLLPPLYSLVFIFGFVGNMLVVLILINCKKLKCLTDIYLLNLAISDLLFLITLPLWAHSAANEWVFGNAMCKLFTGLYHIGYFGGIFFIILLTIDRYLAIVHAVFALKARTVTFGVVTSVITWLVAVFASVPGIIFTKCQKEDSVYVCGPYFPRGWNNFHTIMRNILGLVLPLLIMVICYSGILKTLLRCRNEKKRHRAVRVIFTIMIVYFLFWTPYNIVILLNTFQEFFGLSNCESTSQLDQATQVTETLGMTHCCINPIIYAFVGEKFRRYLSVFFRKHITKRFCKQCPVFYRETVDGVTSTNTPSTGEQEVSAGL
Description: CCR2 receptor membrane binding assay (THP-1 membranes, 125I-MCP-1, SPA beads). To be noted: THP-1 cell membranes, 125I-MCP-1, 8 h; read-out: hKi [nM] (CCR2). The protocol: The above exemplary substances have been tested for binding to CCR2 using a binding assay as outlined herein below:
THP-1 cells (human acute monocytic leukaemia cells) were cultured under standardized conditions at 37° C. and 5% CO2 in a humidified incubator. THP-1 cells were cultivated in RPMI 1640 medium (Gibco 21875) containing 1% MEM-NEAA (Gibso 11140) 2 mM L-glutamine, 1.5 g/L sodium bicarbonate, 4.5 g/L glucose, 10 mM HEPES and 1.0 mM sodium pyruvate, 90%; 10% fetal calf serum (FCS Gibco 10500-064).
Membranes were prepared from THP-1 cells. THP-1 cells were centrifuged at 300×g at 4° C. for 10 min. The cell pellet was resuspendet in Phosphate Buffer Saline (PBS, including 10 μM Pefabloc and a protease inhibitor mix ‘complete’, Boehringer Mannheim (1 tablet/50 ml)), to a concentration of […]. The membrane preparation was performed by disrupting the cells by nitrogen […] (at 50 bar, for 1 h) in a “Nitrogen Bombe” (Parr Instrument). Cell debris was removed by centrifugation (800×g at 4° C., 1 min). The supernatant was centrifuged at 80000×g, 4° C. for 30 min to sediment the cell membranes. Usually 50 mg of protein (Bradford assay) were yielded from 1×10E9 cells. The membranes were resuspendet in 25 mM HEPES, 25 mM MgCl2, 1 mM CaCl2, 10% Glycerine for storage in aliquots at −80° C. in 25 mM HEPES, 25 mM MgCl2, 1 mM CaCl2, 10% Glycerine and stored at −80° C.
Perkin Elmer NEX 332 Jod^125 MCP-1, Stock: 2200 Ci/mmol solved in 2000 μl assay buffer, stored at −20° C. THP-1 membrane were adjusted with 25 mM HEPES, pH 7.2; 5 mM MgCl2; 0.5 mM CaCl2; 0.2% BSA assay buffer to a concentration of 2.5 μg/15 μl. Amersham Biosciences PVT-WGA Beads (RPNQ0001) were adjusted with assay buffer to a concentration of 0.24 mg/30 μl. For preparation of the membrane-bead-suspension membranes and beads were incubated for 30 min at RT under rotation (60 rpm) with a ratio of 1:2. Test compounds dissolved in 100% DMSO to a concentration of 10 mM and are further diluted with 100% DMSO to 1 mM. All additional compound dilutions were obtained with assay buffer, final 1% DMSO. Compounds, membrane-bead-suspension and [^125]MCP-1 (ca. 25000 cpm/10 μl) were incubated. Bound radioactivity was determined by scintillation counter after 8 h. Determination of affinity of test compounds (dissociation constant hKi) is calculated by iterative fitting of experimental data using the “easy sys” program, which is based on law of mass action (Schittkowski K. (1994), Numerische Mathematik, Vol. 68, 129-142).
`COc1nc(Nc2cccc(C(F)(F)F)c2)c(C)c(C(=O)N2CCC(N3CCO[C@H]4COCC[C@H]43)CC2)n1` [Example 27]: the Ki came out at 3 nM.

Turning to `Cc1c(Nc2ccc(Cl)c(Cl)c2)ncnc1C(=O)N1CCC(N2CC3CN(S(C)(=O)=O)CC3C2)CC1` (stereo not drawn) [Example 15], the Ki came out at 3 nM.

As to `Cc1c(NC[C@H]2CCC[C@@H](c3ccccc3)C2)ncnc1C(=O)N1CCC(N2C[C@H]3C[C@@H](N(C)S(C)(=O)=O)C[C@H]3C2)CC1` [Example 11], the Ki amounted to 0.8 nM.

With `Cc1c(C(=O)N2CCC(N3CCOC4COCCC43)CC2)ncnc1N1CCc2ccc(C(F)(F)F)cc2C1` (stereo not drawn) [Example 23], the Ki was 17 nM.

`Cc1c(Nc2ccc(Cl)c(Cl)c2)nc(C2CC2)nc1C(=O)N1CCC(N2CCO[C@H]3COCC[C@H]32)CC1` [Example 26]: the Ki came out at 0.8 nM.

Take `Cc1c(NCc2ccc(C(C)(C)C)cc2)ncnc1C(=O)N1CCC(N2CC3COCC3C2)CC1` (stereo not drawn) [Example 45]: the Ki was 36 nM.

Regarding `Cc1c(NCc2ccc(C(C)(C)C)cc2)ncnc1C(=O)N1CCC(N2CC3CN(S(C)(=O)=O)CC3C2)CC1` (stereo not drawn) [Example 42], the Ki came to 11 nM.

Take `Cc1c(C(=O)N2CCC(N3CC4CN(S(C)(=O)=O)CC4C3)CC2)ncnc1N1CCc2ccc(C(F)(F)F)cc2C1` (stereo not drawn) [Example 13]: the Ki was found to be 7 nM.

Consider `COc1nc(Nc2ccc(Cl)c(Cl)c2)c(C)c(C(=O)N2CCC(N3CCO[C@@H]4COCC[C@@H]43)CC2)n1` (single isomer, unassigned) [Example 37b], for which the Ki amounted to 6 nM.

Turning to `Cc1c(NC[C@H]2CCC[C@@H](c3ccc(C(F)(F)F)cc3)O2)ncnc1C(=O)N1CCC(N2CC3CN(S(C)(=O)=O)CC3C2)CC1` (stereo partly drawn) [Example 12], the Ki was found to be 1 nM.

As for `Cc1c(NC[C@H]2CCC[C@@H](c3ccc(OC(F)(F)F)cc3)O2)ncnc1C(=O)N1CCC(N2CCO[C@H]3COCC[C@H]32)CC1` (single isomer, unassigned) [Example 33], the Ki came to 1 nM.

Regarding `Cc1c(NC[C@H]2CCC[C@@H](c3ccc(OC(F)(F)F)cc3)O2)ncnc1C(=O)N1CCC(N2C[C@H]3C[C@@H](N(C)S(C)(=O)=O)C[C@H]3C2)CC1` [Example 8], the Ki was found to be 0.1 nM.

The target in the next assay is T2, human CCR5 (Homo sapiens, UniProt P51681).
T2 construct: expressed in transfected cells; host or cells: CHO cells co-expressing Gα16, grown under puromycin and zeocin selection; membrane preparation
T2 sequence (P51681 whole entry): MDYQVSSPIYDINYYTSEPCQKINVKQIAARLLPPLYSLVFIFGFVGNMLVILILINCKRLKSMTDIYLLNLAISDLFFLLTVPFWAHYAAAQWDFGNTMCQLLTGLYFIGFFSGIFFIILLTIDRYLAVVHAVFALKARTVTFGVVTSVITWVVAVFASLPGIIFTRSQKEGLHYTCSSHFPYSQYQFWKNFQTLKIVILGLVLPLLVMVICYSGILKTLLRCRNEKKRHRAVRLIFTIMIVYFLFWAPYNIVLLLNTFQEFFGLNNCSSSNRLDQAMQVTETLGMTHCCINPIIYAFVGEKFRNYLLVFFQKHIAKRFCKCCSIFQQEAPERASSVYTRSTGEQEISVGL
Put plainly: CCR5 receptor membrane binding assay (CHO (Gα16) human CCR5 membranes, [125I]RANTES, SPA beads). As to conditions: 6 h, read-out: hKi [nM] (CCR5). As to the method:
The above exemplary substances have been tested for binding to CCR5 using a binding assay as outlined herein below:
CHO, (Gα16) human CCR5 cells were cultured under standardized conditions at 37° C. and 5% CO2 in a humidified incubator. CHO (Gα16) human CCR5 cells were cultivated in Ham's F12 (Invitrogen; #31765068) supplemented with 10 µg/ml Puromycin (Invitrogen; #A11139-03), 200 µg/ml Zeocin (Invitrogen; #45-0003) and 10% FCS (Gibco; #10500-064).
Membranes were prepared from CHO (Gα16) human CCR5 cells. Cells were cultured on […] plates (Nunc; #166508) 2-3 days before membrane preparation (usually 80-100 plates to obtain 80 mg protein).
Cells were scraped off the plates with a big scraper and washed with 2×5 ml ice cold Phosphate Buffer Saline (PBS; Invitrogen; #14040-174). Cell suspension was collected in a glass bottle (on ice). Cell suspension was harvested at 1400 rpm and 4° C. for 10 min and washed in PBS. Cell pellet was resuspended in 40 ml PBS with protease inhibitor mix ‘complete’ (Roche; #11873580001; 1 tablet/50 ml).
For gentle cell disruption the membrane preparation was performed by using a homogenizer (potter). Cells were homogenized for 5-10 min.
Membranes were centrifuged at 1000 rpm and 4° C. for 5 min. Supernatant (=membrane) was harvested in a new falcon tube and remaining cell pellet homogenized again for 5-10 min with PBS with protease inhibitor mix and centrifuged. Collected supernatant was centrifuged at 40000 rpm and 4° C. for 30 min to sediment the cell membranes.
The membranes were resuspended in 25 mM HEPES, 25 mM MgCl2, 1 mM CaCl2, 10% Glycerine for storage in aliquots at −80° C. Membranes were diluted to a concentration of 5 mg/ml (Bradford Assay).
[^125I]RANTES, Stock: 1825 Ci/mmol, 25 μCi (Bio Trend #A3-AI-676) was solved in 1000 μl assay buffer (100 mM NaCl; 10 mM MgCl2; 50 mM Tris-HCl; 1 mM EDTA; 0.1% BSA, pH 7.6), stored at −20° C.
CHO (Gα16) human CCR5 membrane were solved on ice and adjusted with assay buffer to a concentration of 2.5 μg/15 μl.
Amersham Biosciences PVT-WGA Beads (GE Healthcare; #RPNQ0001) were adjusted with assay buffer to a concentration of 8 mg/ml. For preparation of the membrane-bead-suspension, membranes and beads were incubated for 30 min at RT under rotation with a ratio of 1:2.
Test compounds dissolved in 100% DMSO to a concentration of 10 mM and are further diluted with 100% DMSO to 1 mM. All additional compound dilutions were obtained with assay buffer, final 1% DMSO. 7 μl compound dilution, 45 μl membrane-bead-suspension and 10 μl [^125I]RANTES (ca. 20000 cpm/10 μl) were incubated at RT. Bound radioactivity was determined by scintillation counter after 6 h. Determination of affinity of test compounds (dissociation constant Ki) is calculated by iterative fitting of experimental data using the “easy sys” program, which is based on law of mass action (Schittkowski K. (1994), Numerische Mathematik, Vol. 68, 129-142).
For `COc1nc(Nc2cccc(C(F)(F)F)c2)c(C)c(C(=O)N2CCC(N3CCO[C@H]4COCC[C@H]43)CC2)n1` [Example 27], the Ki was found to be 1000 nM.

Take `Cc1c(Nc2ccc(Cl)c(Cl)c2)ncnc1C(=O)N1CCC(N2CC3CN(S(C)(=O)=O)CC3C2)CC1` (stereo not drawn) [Example 15]: the Ki came to 400 nM.

As for `Cc1c(NC[C@H]2CCC[C@@H](c3ccccc3)C2)ncnc1C(=O)N1CCC(N2C[C@H]3C[C@@H](N(C)S(C)(=O)=O)C[C@H]3C2)CC1` [Example 11], the Ki is 15 nM.

In the case of `Cc1c(C(=O)N2CCC(N3CCOC4COCCC43)CC2)ncnc1N1CCc2ccc(C(F)(F)F)cc2C1` (stereo not drawn) [Example 23], the Ki was 5820 nM.

On to `Cc1c(Nc2ccc(Cl)c(Cl)c2)nc(C2CC2)nc1C(=O)N1CCC(N2CCO[C@H]3COCC[C@H]32)CC1` [Example 26], for which the Ki came out at 430 nM.

For the compound `Cc1c(NCc2ccc(C(C)(C)C)cc2)ncnc1C(=O)N1CCC(N2CC3COCC3C2)CC1` (stereo not drawn) [Example 45], the Ki was determined as 4110 nM.

With `Cc1c(NCc2ccc(C(C)(C)C)cc2)ncnc1C(=O)N1CCC(N2CC3CN(S(C)(=O)=O)CC3C2)CC1` (stereo not drawn) [Example 42], the Ki stood at 1820 nM.

Regarding `Cc1c(C(=O)N2CCC(N3CC4CN(S(C)(=O)=O)CC4C3)CC2)ncnc1N1CCc2ccc(C(F)(F)F)cc2C1` (stereo not drawn) [Example 13], the Ki was found to be 2270 nM.

Consider `COc1nc(Nc2ccc(Cl)c(Cl)c2)c(C)c(C(=O)N2CCC(N3CCO[C@@H]4COCC[C@@H]43)CC2)n1` (single isomer, unassigned) [Example 37b], for which the Ki stood at 1000 nM.

With `Cc1c(NC[C@H]2CCC[C@@H](c3ccc(C(F)(F)F)cc3)O2)ncnc1C(=O)N1CCC(N2CC3CN(S(C)(=O)=O)CC3C2)CC1` (stereo partly drawn) [Example 12], the Ki was determined as 220 nM.

`Cc1c(NC[C@H]2CCC[C@@H](c3ccc(OC(F)(F)F)cc3)O2)ncnc1C(=O)N1CCC(N2CCO[C@H]3COCC[C@H]32)CC1` (single isomer, unassigned) [Example 33]: the Ki was determined as 48 nM.

For the compound `Cc1c(NC[C@H]2CCC[C@@H](c3ccc(OC(F)(F)F)cc3)O2)ncnc1C(=O)N1CCC(N2C[C@H]3C[C@@H](N(C)S(C)(=O)=O)C[C@H]3C2)CC1` [Example 8], the Ki worked out at 9 nM.
